Data as given in BindingDB's records for doi:10.1016/j.bioorg.2016.09.004 (North-West University, 2016).

What was measured:
[1] = molecular target: T1, Amine oxidase [flavin-containing] B (Homo sapiens, UniProt P27338); assay: MAO-A and MAO-B Fluorescence Assay; details: pH 7.4
T1 sequence (P27338 whole entry): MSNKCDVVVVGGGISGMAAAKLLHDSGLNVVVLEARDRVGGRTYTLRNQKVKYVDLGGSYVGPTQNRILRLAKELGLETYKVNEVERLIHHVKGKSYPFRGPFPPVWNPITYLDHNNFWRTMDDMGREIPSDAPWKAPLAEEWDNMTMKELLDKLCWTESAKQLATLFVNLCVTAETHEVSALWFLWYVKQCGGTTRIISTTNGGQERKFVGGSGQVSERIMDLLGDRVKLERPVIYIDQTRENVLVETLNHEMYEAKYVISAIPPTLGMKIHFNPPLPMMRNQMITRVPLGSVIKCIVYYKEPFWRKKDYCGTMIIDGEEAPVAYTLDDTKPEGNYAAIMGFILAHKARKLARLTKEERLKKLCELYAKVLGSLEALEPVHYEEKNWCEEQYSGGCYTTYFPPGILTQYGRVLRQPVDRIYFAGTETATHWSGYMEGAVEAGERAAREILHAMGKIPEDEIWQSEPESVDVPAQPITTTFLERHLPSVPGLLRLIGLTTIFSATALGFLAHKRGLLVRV
Protocol: (§1) Recombinant human MAO-A and MAO-B were used for these studies and kynuramine served as enzyme substrate. Kynuramine is oxidised by both MAO isoforms to yield 4-hydroxyquinoline as ultimate product. For the enzyme reactions MAO-A (0.0075 mg/mL) or MAO-B (0.015 mg/mL), the substrate (50 μM) and the test inhibitors (0.003-100 μM) were combined and incubated for 20 min. For this purpose potassium phosphate buffer (pH 7.4, 100 mM) served as solvent. At endpoint the reactions were alkalinised (NaOH) and the fluorescence intensity of 4-hydroxyquinoline was measured (kex = 310 nm; kem = 400 nm).

[2] = molecular target: T2, Amine oxidase [flavin-containing] A (Homo sapiens, UniProt P21397); assay: MAO-A and MAO-B Fluorescence Assay; details: pH 7.4
T2 sequence (P21397 whole entry): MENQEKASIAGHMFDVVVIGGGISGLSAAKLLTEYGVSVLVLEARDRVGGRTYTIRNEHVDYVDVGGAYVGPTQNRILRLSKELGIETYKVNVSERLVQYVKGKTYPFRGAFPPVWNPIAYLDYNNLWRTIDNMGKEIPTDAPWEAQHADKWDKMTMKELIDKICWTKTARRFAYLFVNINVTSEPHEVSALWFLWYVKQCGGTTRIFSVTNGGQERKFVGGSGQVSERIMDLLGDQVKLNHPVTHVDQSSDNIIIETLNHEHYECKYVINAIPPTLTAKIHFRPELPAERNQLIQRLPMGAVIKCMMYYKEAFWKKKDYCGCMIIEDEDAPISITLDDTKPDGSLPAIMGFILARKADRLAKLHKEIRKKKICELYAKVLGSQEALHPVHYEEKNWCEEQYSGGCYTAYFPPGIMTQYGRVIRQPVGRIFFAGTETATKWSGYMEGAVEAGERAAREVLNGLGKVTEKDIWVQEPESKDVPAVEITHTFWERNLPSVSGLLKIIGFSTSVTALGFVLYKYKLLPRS
Protocol: as §1

IC50 [1] [nM] | IC50 [2] [nM] | SMILES
889 | 1200 | O=C1/C(=C/c2ccco2)Cc2ccccc21
229 | 5210 | O=C1/C(=C/C2CCCCC2)Cc2ccccc21 [(2E)-2-(Cyclohexylmethylidene)-2,3-dihydro-1H-inden-1-one (11l)]
139 | – | COc1ccc2c(c1)C/C(=C\C1CCCCC1)C2=O [(2E)-2-(Cyclohexylmethylidene)-5-methoxy-2,3-dihydro-1Hinden-1-one (11m)]
394 | 2330 | COc1ccc2c(c1)C/C(=C\c1ccco1)C2=O [(2E)-2-(Furan-2-ylmethylidene)-5-methoxy-2,3-dihydro-1Hinden-1-one (11g)]
1530 | 853 | O=C1/C(=C/c2ccccn2)Cc2ccccc21 [(2E)-2-(Pyridin-2-ylmethylidene)-2,3-dihydro-1H-inden-1-one (11c)]
1270 | 61 | O=C1/C(=C/c2cccnc2)Cc2ccccc21 [(2E)-2-(Pyridin-3-ylmethylidene)-2,3-dihydro-1H-inden-1-one (11a)]
418 | 1330 | O=C1/C(=C/c2cccs2)Cc2ccccc21 [(2E)-2-(Thiophen-2-ylmethylidene)-2,3-dihydro-1H-inden-1-one (11h)]
114 | 1510 | O=C1/C(=C/c2ccsc2)Cc2ccccc21 [(2E)-2-(Thiophen-3-ylmethylidene)-2,3-dihydro-1H-inden-1-one (11k)]
465 | 471 | O=C1/C(=C/c2cccnc2Cl)Cc2ccccc21 [(2E)-2-[(2-Chloropyridin-3-yl)methylidene]-2,3-dihydro-1Hinden-1-one (11e)]
4.4 | 183 | COc1ccc2c(c1)C/C(=C\c1ccc(Br)o1)C2=O [(2E)-2-[(5-Bromofuran-2-yl)methylidene]-5-methoxy-2,3-dihydro-1H-inden-1-one (11o)]
112 | 302 | COc1ccc2c(c1)C/C(=C\c1ccccn1)C2=O [(2E)-5-Methoxy-2-(pyridin-2-ylmethylidene)-2,3-dihydro-1Hinden-1-one (11d)]
338 | 8550 | COc1ccc2c(c1)C/C(=C\c1cccnc1)C2=O [(2E)-5-Methoxy-2-(pyridin-3-ylmethylidene)-2,3-dihydro-1Hinden-1-one (11b)]
114 | 5180 | COc1ccc2c(c1)C/C(=C\c1cccs1)C2=O [(2E)-5-Methoxy-2-(thiophen-2-ylmethylidene)-2,3-dihydro-1H-inden-1-one (11i)]
26 | 4730 | COc1ccc2c(c1)C/C(=C\c1ccc(C)o1)C2=O [(2E)-5-Methoxy-2-[(5-methylfuran-2-yl)methylidene]-2,3-dihydro-1H-inden-1-one (11n)]
